Molecular target: T1, IGFR kinase (Homo sapiens, UniProt P08069)
T1 construct: purchased Millipore
Assay: Enzyme assay (c), IGFR kinase, Caliper LabChip
Assay type: biochemical
Details: 30 nM IGFR kinase, 6 uM ATP, 3 uM peptide mix; read-out: IGFR IC50
Description: For Echo dosing the solvent was 100% DMSO. A master plate was prepared with 40 ul of 10 mM stock solution of the test compound in DMSO in quadrant 1 of a Labcyte 384 well plate. A 1 in 100 dilution was made from quadrant 1 into quadrant 2 by removing 0.4 ul and adding it to 39.6 ul of DMSO. Subsequent 1 in 100 dilutions were made into quadrant 3 from quadrant 2 and quadrant 4 from quadrant 3.
Multiple 2.5 nl droplets were dispensed from each quadrant of the master plate to generate the dose range that was required in the test. The dose range most commonly used was as follows: 100 uM, 30 uM, 10 uM, 3 uM, 1 uM, 0.3 uM, 0.1 uM, 0.03 uM, 0.01 uM, 0.003 uM, 0.001 uM, 0.0001 uM. Each well was backfilled with dimethyl sulfoxide (DMSO) to a total volume of 120 nl, such that when the enzyme and substrate mix was added the final DMSO concentration was 1%.
DMSO was added to max control wells as 120 nl, minimum control wells were treated with 120 nl of compound at a concentration that inhibited the enzyme activity 100%.
Integration of the substrate and product peaks was carried out using Caliper LabChip software and IC50 curves were calculated using Origin™ software.

T1 sequence (P08069 31-1367): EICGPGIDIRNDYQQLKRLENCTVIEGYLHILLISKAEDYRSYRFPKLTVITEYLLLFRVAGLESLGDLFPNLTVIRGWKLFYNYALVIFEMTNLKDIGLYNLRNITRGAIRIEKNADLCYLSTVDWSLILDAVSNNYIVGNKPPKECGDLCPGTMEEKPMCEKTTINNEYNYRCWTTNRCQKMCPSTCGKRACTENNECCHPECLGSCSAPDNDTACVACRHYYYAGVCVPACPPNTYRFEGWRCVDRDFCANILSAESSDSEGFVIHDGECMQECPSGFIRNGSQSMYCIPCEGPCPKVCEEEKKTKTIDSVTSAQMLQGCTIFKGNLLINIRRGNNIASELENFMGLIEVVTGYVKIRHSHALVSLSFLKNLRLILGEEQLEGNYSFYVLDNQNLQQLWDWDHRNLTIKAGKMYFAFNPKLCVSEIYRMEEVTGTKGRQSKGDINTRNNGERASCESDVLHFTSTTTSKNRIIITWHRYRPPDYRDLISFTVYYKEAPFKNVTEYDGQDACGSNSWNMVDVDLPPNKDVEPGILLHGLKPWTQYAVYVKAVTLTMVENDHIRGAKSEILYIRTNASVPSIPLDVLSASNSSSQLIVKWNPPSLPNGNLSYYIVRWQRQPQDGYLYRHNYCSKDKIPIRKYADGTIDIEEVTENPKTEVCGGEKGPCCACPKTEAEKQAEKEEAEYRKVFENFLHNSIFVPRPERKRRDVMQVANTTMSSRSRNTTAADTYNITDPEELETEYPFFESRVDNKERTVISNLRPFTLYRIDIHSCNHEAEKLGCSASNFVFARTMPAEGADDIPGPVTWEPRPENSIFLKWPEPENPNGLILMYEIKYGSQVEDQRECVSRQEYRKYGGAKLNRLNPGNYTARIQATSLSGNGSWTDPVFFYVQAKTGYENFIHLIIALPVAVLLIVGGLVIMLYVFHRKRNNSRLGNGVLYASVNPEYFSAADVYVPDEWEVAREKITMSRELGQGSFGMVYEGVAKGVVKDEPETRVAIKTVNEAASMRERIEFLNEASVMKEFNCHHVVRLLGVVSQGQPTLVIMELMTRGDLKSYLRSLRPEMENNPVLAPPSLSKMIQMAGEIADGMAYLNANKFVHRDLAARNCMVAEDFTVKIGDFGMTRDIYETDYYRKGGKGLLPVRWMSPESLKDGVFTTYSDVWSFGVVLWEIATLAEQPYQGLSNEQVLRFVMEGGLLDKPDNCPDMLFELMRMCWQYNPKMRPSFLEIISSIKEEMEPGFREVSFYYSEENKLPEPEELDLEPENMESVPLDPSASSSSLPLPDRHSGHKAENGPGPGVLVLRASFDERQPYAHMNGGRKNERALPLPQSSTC

Compared with COc1cc(N2CCN(C(C)=O)CC2)ccc1Nc1ncc(C(F)(F)F)c(-c2cnc3ccccn23)n1 [Example 107, 1-[4-[4-[[4-imidazo[1,2-a]pyridin-3-yl-5-(trifluoromethyl)pyrimidin-2-yl]amino]-3-methoxy-phenyl]piperazin-1-yl]ethanone], COc1cc(N2CCN(C(C)(C)CO)CC2)ccc1Nc1ncc(F)c(-c2cnc3ccccn23)n1 [Example 228, 2-[4-[4-[(5-fluoro-4-imidazo[1,2-a]pyridin-3-yl-pyrimidin-2-yl)amino]-3-methoxy-phenyl]piperazin-1-yl]-2-methyl-propan-1-ol] is 1.6-fold higher in IC50: 15 nM for the first, 24 nM for the second. The first is the more potent here.

Going from COc1cc2c(cc1Nc1ncc(Cl)c(-c3cnn4ccccc34)n1)NCC2 [Example 155, N-(5-chloro-4-pyrazolo[1,5-a]pyridin-3-yl-pyrimidin-2-yl)-5-methoxy-indolin-6-amine] to CNCC(=O)N1CCc2cc(OC)c(Nc3ncc(Cl)c(-c4cnn5ccccc45)n3)cc21 [Example 156, 1-[6-[(5-chloro-4-pyrazolo[1,5-a]pyridin-3-yl-pyrimidin-2-yl)amino]-5-methoxy-indolin-1-yl]-2-(methylamino)ethanone], the IC50 falls from 120 nM to 4 nM (30-fold). The second is the more potent here.

COc1cc(C2CCN(C(=O)CO)CC2)ccc1Nc1ncc(Cl)c(-c2cnc3ccc(F)cn23)n1 [Example 244, 1-[4-[4-[[5-chloro-4-(6-fluoroimidazo[1,2-a]pyridin-3-yl)pyrimidin-2-yl]amino]-3-methoxy-phenyl]-1-piperidyl]-2-hydroxy-ethanone] and COc1cc(C2CCN(C(=O)N(C)CCO)CC2)ccc1Nc1ncc(Cl)c(-c2cnc3ccccn23)n1 [Example 58, 4-[4-[(5-chloro-4-imidazo[1,2-a]pyridin-3-yl-pyrimidin-2-yl)amino]-3-methoxy-phenyl]-N-(2-hydroxyethyl)-N-methyl-piperidine-1-carboxamide] are within 1.5-fold of each other in IC50: 5 nM for the first, 6 nM for the second.

Going from COc1cc(N2CCNCC2)ccc1Nc1ncc(Cl)c(-c2cnn3ccccc23)n1 [Example 129, 5-chloro-N-(2-methoxy-4-piperazin-1-yl-phenyl)-4-pyrazolo[1,5-a]pyridin-3-yl-pyrimidin-2-amine] to COc1cc(N2CCN(C(C)(C)CO)CC2)ccc1Nc1ncc(Cl)c(-c2cnn3ccccc23)n1 [Example 230, 2-[4-[4-[(5-chloro-4-pyrazolo[1,5-a]pyridin-3-yl-pyrimidin-2-yl)amino]-3-methoxy-phenyl]piperazin-1-yl]-2-methyl-propan-1-ol], the IC50 rises from 3 nM to 5 nM (1.7-fold).

Going from COCCOC(=O)N1CCN(c2ccc(Nc3ncc(Cl)c(-c4cnc5ccccn45)n3)c(OC)c2)CC1 [Example 45, 2-methoxyethyl 4-[4-[(5-chloro-4-imidazo[1,2-a]pyridin-3-yl-pyrimidin-2-yl)amino]-3-methoxy-phenyl]piperazine-1-carboxylate] to COc1cc(N2CCN(CC(=O)N(C)CCO)CC2)ccc1Nc1ncc(Cl)c(-c2cnc3ccccn23)n1 [Example 67, 2-[4-[4-[(5-chloro-4-imidazo[1,2-a]pyridin-3-yl-pyrimidin-2-yl)amino]-3-methoxy-phenyl]piperazin-1-yl]-N-(2-hydroxyethyl)-N-methyl-acetamide], the IC50 falls from 24 nM to 7 nM (3.4-fold).

COc1cc(CN2CCC[C@H](O)C2)ccc1Nc1ncc(Cl)c(-c2cnc3ccccn23)n1 [Example 21.17, (3S)-1-[[4-[(5-chloro-4-imidazo[1,2-a]pyridin-3-yl-pyrimidin-2-yl)amino]-3-methoxy-phenyl]methyl]piperidin-3-ol] and COc1cc(CN2CCC[C@@H](O)C2)ccc1Nc1ncc(Cl)c(-c2cnc3ccccn23)n1 [Example 21.12, (3R)-1-[[4-[(5-chloro-4-imidazo[1,2-a]pyridin-3-yl-pyrimidin-2-yl)amino]-3-methoxy-phenyl]methyl]piperidin-3-ol] are within 1.5-fold of each other in IC50: 28 nM for the first, 24 nM for the second.

First: COc1cc(N2CCN(C(C)(C)CO)CC2)ccc1Nc1ncc(C)c(-c2cnc3ccccn23)n1 [Example 229, 2-[4-[4-[(4-imidazo[1,2-a]pyridin-3-yl-5-methyl-pyrimidin-2-yl)amino]-3-methoxy-phenyl]piperazin-1-yl]-2-methyl-propan-1-ol]
Second: COc1cc(N2CCN(CCO)CC2)ccc1Nc1ncc(Br)c(-c2cnc3ccccn23)n1 [Example 115, 2-[4-[4-[(5-bromo-4-imidazo[1,2-a]pyridin-3-yl-pyrimidin-2-yl)amino]-3-methoxy-phenyl]piperazin-1-yl]ethanol]
The IC50 of the first is 4-fold higher: 20 nM for the first, 5 nM for the second.

COc1cc(CN2CC[C@@H](O)C2)ccc1Nc1ncc(Cl)c(-c2cnc3ccccn23)n1 [Example 21.18, (3R)-1-[[4-[(5-chloro-4-imidazo[1,2-a]pyridin-3-yl-pyrimidin-2-yl)amino]-3-methoxy-phenyl]methyl]pyrrolidin-3-ol] and COc1cc(O[C@H]2CCN(C(C)=O)C2)ccc1Nc1ncc(Cl)c(-c2cnc3ccccn23)n1 [Example 13, 1-[(3S)-3-[4-[(5-chloro-4-imidazo[1,2-a]pyridin-3-yl-pyrimidin-2-yl)amino]-3-methoxy-phenoxy]pyrrolidin-1-yl]ethanone] are within 1.5-fold of each other in IC50: 17 nM for the first, 20 nM for the second.

Compared with COc1cc(N2CC3CN(CCO)CC(C2)O3)ccc1Nc1ncc(Cl)c(-c2cnn3ccccc23)n1 [Example 150, 2-[7-[4-[(5-chloro-4-pyrazolo[1,5-a]pyridin-3-yl-pyrimidin-2-yl)amino]-3-methoxy-phenyl]-9-oxa-3,7-diazabicyclo[3.3.1]nonan-3-yl]ethanol], COc1cc(N2CC3CN(C(=O)[C@H](C)O)CC(C2)O3)ccc1Nc1ncc(Cl)c(-c2cnc3c(F)cccn23)n1 [Example 213, (2S)-1-[3-[4-[[5-chloro-4-(8-fluoroimidazo[1,2-a]pyridin-3-yl)pyrimidin-2-yl]amino]-3-methoxy-phenyl]-9-oxa-3,7-diazabicyclo[3.3.1]nonan-7-yl]-2-hydroxy-propan-1-one] is 2.8-fold higher in IC50: 5 nM for the first, 14 nM for the second.

COc1cc(OC2CCN(C(C)=O)CC2)ccc1Nc1ncc(C)c(-c2cnc3ccccn23)n1 [Example 103, 1-[4-[4-[(4-imidazo[1,2-a]pyridin-3-yl-5-methyl-pyrimidin-2-yl)amino]-3-methoxy-phenoxy]-1-piperidyl]ethanone] and COc1cc(OC[C@H]2CCCN2)ccc1Nc1ncc(C)c(-c2cnc3ccccn23)n1 [Example 102, 4-imidazo[1,2-a]pyridin-3-yl-N-[2-methoxy-4-[[(2R)-pyrrolidin-2-yl]methoxy]phenyl]-5-methyl-pyrimidin-2-amine] are within 1.5-fold of each other in IC50: 77 nM for the first, 54 nM for the second.

Going from CNCC(=O)N1CCN(c2ccc(OC)c(Nc3ncc(C)c(-c4cnn5ccccc45)n3)c2)CC1 [Example 167, 1-[4-[4-methoxy-3-[(5-methyl-4-pyrazolo[1,5-a]pyridin-3-yl-pyrimidin-2-yl)amino]phenyl]piperazin-1-yl]-2-(methylamino)ethanone] to COc1cc(C2CCN(C(=O)[C@H](C)O)CC2)ccc1Nc1ncc(Cl)c(-c2cnn3ccccc23)n1 [Example 139, (2S)-1-[4-[4-[(5-chloro-4-pyrazolo[1,5-a]pyridin-3-yl-pyrimidin-2-yl)amino]-3-methoxy-phenyl]-1-piperidyl]-2-hydroxy-propan-1-one], the IC50 falls from 49 nM to 12 nM (4.1-fold).

COc1cc(OC2CN(C(=O)[C@H](C)O)C2)ccc1Nc1ncc(Cl)c(-c2cnc3ccccn23)n1 [Example 27.1, (2S)-1-[3-[4-[(5-chloro-4-imidazo[1,2-a]pyridin-3-yl-pyrimidin-2-yl)amino]-3-methoxy-phenoxy]azetidin-1-yl]-2-hydroxy-propan-1-one] and COc1cc(CN[C@H](C)CO)ccc1Nc1ncc(Cl)c(-c2cnc3ccccn23)n1 [Example 21.15, (2R)-2-[[4-[(5-chloro-4-imidazo[1,2-a]pyridin-3-yl-pyrimidin-2-yl)amino]-3-methoxy-phenyl]methylamino]propan-1-ol] are within 1.5-fold of each other in IC50: 31 nM for the first, 26 nM for the second.

Compared with COc1ccc(OC[C@H]2CCCN2)cc1Nc1ncc(Cl)c(-c2cnc3ccccn23)n1 [Example 6.4, 5-chloro-4-imidazo[1,2-a]pyridin-3-yl-N-[2-methoxy-5-[[(2R)-pyrrolidin-2-yl]methoxy]phenyl]pyrimidin-2-amine], COc1ccc(OC[C@@H]2CCCN2)cc1Nc1ncc(Cl)c(-c2cnc3ccccn23)n1 [Example 6.3, 5-chloro-4-imidazo[1,2-a]pyridin-3-yl-N-[2-methoxy-5-[[(2S)-pyrrolidin-2-yl]methoxy]phenyl]pyrimidin-2-amine] is 1.5-fold higher in IC50: 12 nM for the first, 18 nM for the second. The first is the more potent here.

COc1cc(N2CCN(C(=O)[C@@H](C)O)CC2)ccc1Nc1ncc(Cl)c(-c2cnc3ccc(F)cn23)n1 [Example 255, (2R)-1-[4-[4-[[5-chloro-4-(6-fluoroimidazo[1,2-a]pyridin-3-yl)pyrimidin-2-yl]amino]-3-methoxy-phenyl]piperazin-1-yl]-2-hydroxy-propan-1-one] and COc1cc(N2CCN(C(=O)[C@H](C)N)CC2)ccc1Nc1ncc(Cl)c(-c2cnc3cc(C)ccn23)n1 [Example 258, (2S)-2-amino-1-[4-[4-[[5-chloro-4-(7-methylimidazo[1,2-a]pyridin-3-yl)pyrimidin-2-yl]amino]-3-methoxy-phenyl]piperazin-1-yl]propan-1-one] are the same in IC50: 5 nM for the first, 5 nM for the second.

COc1cc(N2CCN(CCO)CC2)ccc1Nc1ncc(C)c(-c2cnc3ccc(F)cn23)n1 [Example 264, 2-[4-[4-[[4-(6-fluoroimidazo[1,2-a]pyridin-3-yl)-5-methyl-pyrimidin-2-yl]amino]-3-methoxy-phenyl]piperazin-1-yl]ethanol] was tested, and the IC50 was 12 nM.
